Source: patent publication US20230190863A1, “PHARMACEUTICAL COMPOSITIONS AND ANTI-VIRAL USES THEREOF” (priority 2020, published 2023)
“And” between values parts separate entries of the source, which are not always exact repeats. Equal values may be shown once. Read-outs that look alike come from different tables or passages of the source. Ends that are not written are not given here.

How the values were obtained:
[1] = tested on: Influenza A virus (A / WSN /33); assay: microbe, parasite or virus in culture; conditions: MDCK-II, 24 h
[2] = tested on: Influenza A virus (A / WSN /33)
[3] = tested on: MDCK-II cells; conditions: for Absorbance values - cytotoxicity at 24 h: MTT 570 nm; for Absorbance values - cytotoxicity at 24 h / Percentages of cytotoxicity at 24 h: replicates
[4] = tested on: SARS-CoV2
[5] = in vitro; conditions: dog, MTT
[6] = in vitro; conditions: African green monkey
Description: (§1) Antiviral activity was determined at 24 h using an immunofluorescence-based assay. Cytotoxicity was determined using an MTT assay on uninfected cells treated with the same concentrations of peptide.
(§2) Virus and peptide were left on the cells for the entire duration of the experiment (24 h).
(§3) Either immediately after infection, or 2 h after infection, 50µl of treatment from the dilution plate were transferred to the cells in each plate (infectivity and cytotoxicity). […] 50 µl of media without diluent were added to the cytotoxicity plate instead of virus. Both plates were incubated at 37° C., 5% CO2 for 24 h.
(§4) The cytotoxicity plate was treated with MTT to determine cell viability.
(§5) Cytotoxicity was detected by MTT assay following standard protocols and techniques. Briefly, the MTT reagent (Sigma, M5655) was added to the cells for 2 h at 37° C., 5% CO2, after which the media was removed and the precipitate solubilized with a mixture of 1: 1 Isopropanol: DMSO for 20 minutes. The supernatant was transferred to a clean plate and signal read at 570 nm.

[7] = Preliminary safety in pilot studies using human subjects; format: in vivo
[8] = tested on: Vero cells; conditions: for Absorbance values - cytotoxicity at 24 h / Percentages of cytotoxicity at 24 h / cytotoxicity (in words): Vero cells; for Absorbance values - cytotoxicity at 24 h: MTT 570 nm; for Absorbance values - cytotoxicity at 24 h / Percentages of cytotoxicity at 24 h: replicates
Description: as §1, §2, §3, §4, §5

[9] = tested on: SARS-CoV-2; assay: Clinical study of INS peptide (GAMMORA) in patients with moderate to severe COVID-19; format: in vivo, human; conditions: of 15 treated, 40 mg/day SC for 9 days plus standard of care (Atripla)
[10] = tested on: SARS-CoV2; assay: microbe, parasite or virus in culture; conditions: Severe acute respiratory syndrome coronavirus 2, Vero, 24 h
[11] = uninfected Vero cells, MTT, 24 h

In the case of `O=C(Nc1ccc([N+](=O)[O-])cc1Cl)c1cc(Cl)ccc1O` [Niclosamide, reference compound], the EC50 [1] is reported as 0.61 µM, the EC90 [1] is reported as 3.06 µM and the “SI50 (=TC50/EC50)” value [2] is reported as 16.84. For the same compound, the “SI90 (=TC90/EC90)” value [2] was 4.19, the “Absorbance values - cytotoxicity at 24 h” value ([3]; 0 µM) was 0.1646 and 0.1811 and the “Percentages of cytotoxicity at 24 h” value ([3]; 0 µM) was 16.58% and 8.22%. The “Absorbance values - cytotoxicity at 24 h” value ([3]; 0.01 µM) was 0.2048, the “Percentages of cytotoxicity at 24 h” value ([3]; 0.01 µM) was -3.79% and the “Absorbance values - cytotoxicity at 24 h” value ([3]; 0.04 µM) was 0.2247 and 0.2292. The “Percentages of cytotoxicity at 24 h” value ([3]; 0.04 µM) was -13.87% and -16.15%, the “Absorbance values - cytotoxicity at 24 h” value ([3]; 0.12 µM) was 0.213 and 0.2407 and the “Percentages of cytotoxicity at 24 h” value ([3]; 0.12 µM) was -7.94% and -21.98%. For the same compound, the “Absorbance values - cytotoxicity at 24 h” value ([3]; 0.37 µM) was 0.2429 and 0.2319, the “Percentages of cytotoxicity at 24 h” value ([3]; 0.37 µM) was -23.1% and -17.52% and the “Absorbance values - cytotoxicity at 24 h” value ([3]; 1.11 µM) was 0.227 and 0.2465. The “Percentages of cytotoxicity at 24 h” value ([3]; 1.11 µM) was -15.04% and -24.92%, the “Absorbance values - cytotoxicity at 24 h” value ([3]; 3.33 µM) was 0.2005 and 0.1965 and the “Percentages of cytotoxicity at 24 h” value ([3]; 3.33 µM) was -1.61% and 0.42%. For the same compound, the “Absorbance values - cytotoxicity at 24 h” value ([3]; 10 µM) was 0.107 and 0.1166 and the “Percentages of cytotoxicity at 24 h” value ([3]; 10 µM) was 45.77% and 40.91%.

WTAVQMAVFIHNFKRK [Codivir] showed an EC50 ([4]; 24 h) of 12.5 µM, a CC50 at 24 h ([5]; TC50, text, MDCK-II cells) of roughly 50 µM and a CC50 at 24 h ([5]; uninfected MDCK-II cells, TC50, post-infection row) of 51 µM. The CC50 at 24 h ([5]; uninfected MDCK-II cells, TC50, with infection row) was 49.2 µM, the CC50 at 24 h [6] was 43.5 µM and the “adverse events / severe adverse events” value [7] was “No adverse events or severe adverse events were detected”. The “tolerability, side effects” value [7] was “tolerable, exhibits no reported side effects and no harm to immune system, with no adverse events”, the “vital signs, physical examinations” value [7] was “no significant differences” and the blood tests ([7]; relative to baseline) was “no significant changes relative to the baseline”. The “Absorbance values - cytotoxicity at 24 h” value ([8]; 0.05 uM) was 0.1161 and 0.1456 and 0.1448 and 0.1447 and 0.1351, the “Percentages of cytotoxicity at 24 h” value ([8]; 0.05 uM) was 4.24% and -20.09% and -19.43% and -19.35% and -9.12% and -11.43% and the “Absorbance values - cytotoxicity at 24 h” value ([8]; 0.15 uM) was 0.1361 and 0.143 and 0.1487 and 0.1479 and 0.1455 and 0.1446. The “Percentages of cytotoxicity at 24 h” value ([8]; 0.15 uM) was -12.26% and -17.95% and -22.65% and -21.99% and -20.01% and -19.27%, the “Absorbance values - cytotoxicity at 24 h” value ([8]; 0.46 uM) was 0.1454 and 0.1447 and 0.1452 and 0.1433 and 0.1468 and 0.1493 and the “Percentages of cytotoxicity at 24 h” value ([8]; 0.46 uM) was -19.93% and -19.35% and -19.76% and -18.20% and -21.08% and -23.15%. The “Absorbance values - cytotoxicity at 24 h” value ([8]; 4.17 uM) was 0.1306 and 0.1426 and 0.1477 and 0.1432 and 0.1433 and 0.1556, the “Percentages of cytotoxicity at 24 h” value ([8]; 4.17 uM) was -7.72% and -17.62% and -21.83% and -18.12% and -18.20% and -28.34% and the “Absorbance values - cytotoxicity at 24 h” value ([8]; 12.50 uM) was 0.1196 and 0.1315 and 0.1325 and 0.1324 and 0.1314 and 0.1395. For the same compound, the “Percentages of cytotoxicity at 24 h” value ([8]; 12.50 uM) was 1.35% and -8.46% and -9.29% and -9.21% and -8.38% and -15.06%, the “Absorbance values - cytotoxicity at 24 h” value ([8]; 25.00 uM) was 0.0691 and 0.075 and 0.0733 and 0.0763 and 0.0762 and 0.0822 and the “Percentages of cytotoxicity at 24 h” value ([8]; 25.00 uM) was 43.00% and 38.14% and 39.54% and 37.07% and 37.15% and 32.20%. The “Absorbance values - cytotoxicity at 24 h” value ([8]; 75.00 uM) was 0.0407 and 0.0403 (2×) and 0.0389 and 0.0414 and 0.0421, the “Percentages of cytotoxicity at 24 h” value ([8]; 75.00 uM) was 66.433% and 66.76% (2×) and 67.91% and 65.85% and 65.27% and the “cytotoxicity (in words)” value ([8]; at concentrations giving 90% inhibition of infectivity) was “minimal cytotoxicity”. The “cytotoxicity (in words)” value ([8]; highest concentrations tested) was “Some cytotoxicity”, the TC90 [8, 11] was 143.6 µM and the TC99.9 [8, 11] was 185.9 µM. The “Absorbance values - cytotoxicity at 24 h” value ([3]; 0.05 µM) was 0.0985 and 0.1183 and 0.1389 and 0.1493 and 0.1468 and 0.1612, the “Absorbance values - cytotoxicity at 24 h” value ([3]; 0.15 µM) was 0.1552 and 0.1707 and 0.1789 and 0.1965 and 0.1896 and 0.2019 and the “Absorbance values - cytotoxicity at 24 h” value ([3]; 0.46 µM) was 0.1522 and 0.1679 and 0.2104 and 0.2062 and 0.1922 and 0.1978. The “Absorbance values - cytotoxicity at 24 h” value ([3]; 4.17 µM) was 0.2071 and 0.1982 and 0.2203 and 0.2153 and 0.2027 and 0.2054, the “Absorbance values - cytotoxicity at 24 h” value ([3]; 12.50 µM) was 0.183 and 0.2158 and 0.2057 and 0.2165 and 0.2045 and 0.2113 and the “Absorbance values - cytotoxicity at 24 h” value ([3]; 25.00 µM) was 0.1794 and 0.1713 and 0.1708 and 0.1681 and 0.1845 and 0.1841. The “Absorbance values - cytotoxicity at 24 h” value ([3]; 75.00 µM) was 0.0422 and 0.0436 and 0.0425 and 0.0421 (2×) and 0.0419, the TC90 ([3]; MTT, 24 h) was “around 100 µM” and the “cytotoxicity (in words)” value ([3]; highest concentrations tested) was “Some cytotoxicity”. For the same compound, the “Percentages of cytotoxicity at 24 h” value ([3]; post infection, 0.05 µM) was 24.34% and 25.6% and 18.31%, the “Percentages of cytotoxicity at 24 h” value ([3]; post infection, 0.15 µM) was 0.42% and 3.91% and -2.32% and the “Percentages of cytotoxicity at 24 h” value ([3]; post infection, 0.46 µM) was -4.5% and 2.6% and -0.24%. The “Percentages of cytotoxicity at 24 h” value ([3]; post infection, 4.17 µM) was -9.11% and -2.72% and -4.09%, the “Percentages of cytotoxicity at 24 h” value ([3]; post infection, 12.50 µM) was -9.72% and -3.64% and -7.08% and the “Percentages of cytotoxicity at 24 h” value ([3]; post infection, 25.00 µM) was 14.81% and 6.5% and 6.7%. The “Percentages of cytotoxicity at 24 h” value ([3]; post infection, 75.00 µM) was 78.66% (2×) and 78.77%, the “Percentages of cytotoxicity at 24 h” value ([3]; with infection, 0.05 µM) was 50.08% and 40.05% and 29.61% and the “Percentages of cytotoxicity at 24 h” value ([3]; with infection, 0.15 µM) was 21.35% and 13.49% and 9.34%. The “Percentages of cytotoxicity at 24 h” value ([3]; with infection, 0.46 µM) was 22.87% and 14.91% and -6.63%, the “Percentages of cytotoxicity at 24 h” value ([3]; with infection, 4.17 µM) was -4.95% and -0.44% and -11.64% and the “Percentages of cytotoxicity at 24 h” value ([3]; with infection, 12.50 µM) was 7.26% and -9.36% and -4.24%. For the same compound, the “Percentages of cytotoxicity at 24 h” value ([3]; with infection, 25.00 µM) was 9.08% and 13.19% and 13.44% and the “Percentages of cytotoxicity at 24 h” value ([3]; with infection, 75.00 µM) was 78.61% and 77.9% and 78.46%.

For WTAVQMAVFIHNFKRK [INS-HC1], the “patients recovered completely and negative for SARS-CoV-2 at end of study” value [9] was “Four” and the “patients discharged from intensive care unit (ICU) to the general ward with almost full recovery” value ([9]; moderate to severe COVID-19, control group (Atripla only): 14 out of 15 died) was 15 patients.

In the case of `CCC(CC)COC(=O)[C@H](C)N[P@](=O)(OC[C@H]1O[C@@](C#N)(c2ccc3c(N)ncnn23)[C@H](O)[C@@H]1O)Oc1ccccc1` [Remdesivir, reference compound], the EC50 [10] is reported as 1.28 µM, the EC90 [10] is reported as 3.9 µM and the EC99.9 [4] is reported as 4.4 µM. For the same compound, the “Absorbance values - cytotoxicity at 24 h” value ([8]; 0.01 uM) was 0.1378 and 0.1381, the “Absorbance values - cytotoxicity at 24 h” value ([8]; 0.03 uM) was 0.147 and 0.1423 and the “Absorbance values - cytotoxicity at 24 h” value ([8]; 0.08 uM) was 0.1483 and 0.1462. For the same compound, the “Absorbance values - cytotoxicity at 24 h” value ([8]; 0.25 uM) was 0.1554 and 0.1531, the “Absorbance values - cytotoxicity at 24 h” value ([8]; 0.74 uM) was 0.1606 and 0.1568 and the “Absorbance values - cytotoxicity at 24 h” value ([8]; 2.22 uM) was 0.1599 and 0.1541. For the same compound, the “Absorbance values - cytotoxicity at 24 h” value ([8]; 6.67 uM) was 0.1198 and 0.1127 and the “Absorbance values - cytotoxicity at 24 h” value ([8]; 20 uM) was 0.1234 and 0.1247.
